From patent US7763426B2, “Probes and methods for detection of Escheridia coli and antibiotic resistance” (priority 2004, dated 2010)
{Fluorescein} = fluorescein label (binding site for anti-fluorescein Fab-HRP); {Biotin} = biotin (capture probe anchor)

Tested on: bacterial 16S rRNA
Test: Clinical validity study: UTI Chip on blinded clinical urine specimens
Type: binding
Protocol: Amperometric detection of bacterial 16S rRNA. An overview of the electrochemical sensor detection strategy is presented in panel C of FIG. 1. One ml of bacteria in Luria broth, inoculated clean urine, or clinical urine samples was centrifuged at 10,000×g for 5 min. The supernatant was discarded and the bacteria were lysed by resuspension of the pellet in 10 μl of 1 M NaOH and incubation at room temperature for 5 min. In some experiments, addition of 1M NaOH was preceded by resuspension of the bacterial pellet in 10 μl of 0.1% Triton X-100, 2 mM EDTA, and 1 mg/ml lysozyme (Sigma) in 20 mM Tris-HCl, pH 8.0, and incubation at room temperature for 5 min. 50 μl of the detector probe (0.25 μM) in 2.5% bovine serum albumin (Sigma, St. Louis, Mo.) 1 M phosphate buffer, pH 7.4, were added to the bacterial lysate and incubated for 10 min at 65° C. to allow target-probe hybridization. 4 μl of the bacterial lysate/detector probe mixture was deposited on each of the working electrodes in the sensor array and incubated for 15 min at 65° C. in a humidified chamber. After washing and drying, 4 μl of 0.5 U/ml anti-fluorescein horseradish peroxidase (HRP) Fab fragments (Roche, diluted in 0.5% casein in 10 mM phosphate buffered saline, pH 7.4) were deposited on each of the working electrodes for 15 min. After washing and drying, a prefabricated plastic well manifold (GeneFluidics, Monterey Park, Calif.) was bonded to the sensor array. The sensor array was put into the chip reader (FIG. 18) and 50 μl of 3,3′,5,5′-tetramethylbenzidine (TMB), H2O2 solution (K-Blue Low Activity TMB Substrate, Neogen, Lexington, Ky.) was placed on each of the sensors in the array so as to cover all three electrodes of each sensor. Electrochemical measurements are immediately and simultaneously taken for all 16 sensors. For each array, negative control (NC) sensors were tested including the UNI capture probe, detector probe, and 2.5% bovine serum albumin (Sigma, St, Louis, Mo.) in 1 M phosphate buffer, pH 7.4, instead of bacterial lysate. The entire assay protocol was completed within 45 min from the time when bacterial lysis was commenced. Amperometric current vs. time was measured using a multichannel potentiostat (GeneFluidics). The voltage was fixed at −200 mV (vs. reference), and the electroreduction current was measured at 60 s after the HRP redox reaction reached steady state.
Clinical validity study design. Clinical urine specimens were received from routine urine cultures collected from inpatients and outpatients and submitted to the UCLA Clinical Microbiology Laboratory. Routine plating on tripticase soy agar with 5% sheep blood was performed on each specimen for phenotypic identification and colony counting while an aliquot of each specimen was held at 4° C. overnight. On the day after plating, specimens were selected for inclusion in the study on the basis of a rapid indole test for the purpose of including uropathogens other than Escherichia coli in approximately one-half of the specimens. The other half of the specimens were divided between E. coli-containing specimens and specimens determined to have ““no significant growth” or no growth” (see definitions below). Because most UTIs involve a single uropathogen, specimens determined by the clinical microbiology laboratory to have more than one organism present were excluded. Blinded specimens selected for inclusion in the study were stripped of patient identifiers and any microbiological data before delivery to the research laboratory for testing with the electrochemical sensor array.
Experiments were performed on all specimens using the 16-sensor array ‘UTI Chip’, in which the UNI, EB, EC, PM, KE, PA, and EF capture probes (defined in Tables 1 and 2) were tested in duplicate. The two remaining sensors served as negative controls (including capture and detector probes without bacterial lysate). […]

[1] = No Significant Growth specimens
[2] = specimens with Citrobacter freundii
[3] = specimens with Citrobacter koseri
[4] = specimens with Enterobacter aerogenes
[5] = specimens with Enterobacter cloacae
[6] = specimens with Enterobacteriaceae
[7] = specimens with Enterococcus species
[8] = specimens with Escherichia coli
[9] = specimens with Gram-negative bacteria
[10] = specimens with Gram-positive bacteria
[11] = specimens with Klebsiella pneumoniae
[12] = specimens with Proteus mirabilis
[13] = specimens with Pseudomonas aeruginosa
[14] = specimens with Serratia marcescens
[15] = specimens with Staph. saprophyticus

UNI: Universal Bacterial probe pair: capture 797 (27 mer) SEQ ID NO: 13, detector 766 (31 mer) SEQ ID NO: 14 (DNA 1 CATCGTTTACGGCGTGGACTACCAGGG; DNA 2 TATCTAATCCTGTTTGCTCCCCACGCTTTCG; DNA 1: DNA, 5' {Biotin}, backbone and methylation of C not given here; DNA 2: DNA, 5' {Fluorescein}, backbone and methylation of C not given here)
sensitivity for detection of Gram-negative bacteria in clinical urine specimens: 100% | specificity (10/12 no growth specimens): 83% | overall sensitivity for detection of uropathogens in clinical urine specimens (54/58, 0.30 log unit threshold): 93% | Mean (range) (All specimens with bacteria): 1.28 (0.33-1.84) log10 units over background | Positive/Total = Percent (All specimens with bacteria): 54/58 = 93% | Mean (range) (No Growth specimens): 0.38 (0.34-0.42) log10 units over background | Positive/Total = Percent (No Growth specimens): 2/12 = 17% | Mean (range) [1]: 0.42 (0.31-0.57) log10 units over background | Positive/Total = Percent [1]: 5/3 = 63% | Mean (range) [2]: 1.49 (1.43-1.55) log10 units over background | Positive/Total = Percent [2]: 2/2 = 100% | Mean (range) [3]: 1.23 log10 units over background | Positive/Total = Percent [3]: 1/1 = 100% | Mean (range) [4]: 1.35 (0.93-1.65) log10 units over background | Positive/Total = Percent [4]: 5/5 = 100% | Mean (range) [5]: 1.43 log10 units over background | Positive/Total = Percent [5]: 1/1 = 100% | Mean (range) [6]: 1.32 (0.40-1.84) log10 units over background | Positive/Total = Percent [6]: 47/47 = 100% | Mean (range) [7]: 0.92 (0.33-1.78) log10 units over background | Positive/Total = Percent [7]: 5/8 = 63% | Mean (range) [8]: 1.30 (0.54-1.77) log10 units over background | Positive/Total = Percent [8]: 26/26 = 100% | Mean (range) [9]: 1.32 (0.40-1.84) log10 units over background | Positive/Total = Percent [9]: 48/48 = 100% | Mean (range) [10]: 0.95 (0.33-1.78) log10 units over background | Positive/Total = Percent [10]: 6/10 = 60% | Mean (range) [11]: 1.22 (0.40-1.84) log10 units over background | Positive/Total = Percent [11]: 8/8 = 100% | Mean (range) [12]: 1.41 (1.16-1.66) log10 units over background | Positive/Total = Percent [12]: 3/3 = 100% | Mean (range) [13]: 1.33 log10 units over background | Positive/Total = Percent [13]: 1/1 = 100% | Mean (range) [14]: 1.67 log10 units over background | Positive/Total = Percent [14]: 1/1 = 100% | Mean (range) [15]: 1.10 log10 units over background | Positive/Total = Percent [15]: 1/2 = 50%
